The text below walks through data of PubChem BioAssay (NCI).

What all share (test): NCI tumour cell line growth inhibition, 48 h
Assay [1] concerns LXFL 529 NSCLC.
The subject of assay [2] is KM20L2 colon.
Assay [3] relates to RXF-631 renal.
The test system of assay [4] is M19-MEL melanoma.
The test system of assay [5] is DMS 273 small cell lung.
The subject of assay [6] is XF 498 CNS.
The test system of assay [7] is P388 leukemia.
Assay [8] has as its system P388/ADR leukemia.
Assay [9] concerns SN12K1 renal.

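48-hour exposure; five concentrations; linearly interpolated endpoints. TGI is the concentration that stops growth completely.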

With `COc1ccc2c(c1)c(=O)c1c(NCCN(C)C)ccc3nnn2c31`, the TGI turned out to be 18 µM in assay [1], 14.7 µM in [2], 14 µM in assay [3] and 20.8 µM in assay [4].

Turning to `CC(CN(C)C)C(=O)c1ccccc1` (configuration not stated), the TGI in [1] is 39.8 µM; in [5], > 100 µM; in assay [2], > 87.5 µM; in assay [6], 45 µM; in assay [3], > 100 µM; in assay [4], 35.4 µM.

Regarding `COc1ccc(C2C3CCCC(C3=O)C(c3ccc(OC)cc3)N2N=O)cc1` (configuration not stated), the TGI in assay [7] was 42.9 µM; in assay [5], 43.6 µM; in assay [8] it was 38.3 µM; in [2] it was > 100 µM; in assay [6] it was 72.4 µM; in [9], > 79.6 µM. For the same molecule, in assay [4], the TGI is 99.2 µM.

In the case of `COc1cc(C2c3cc4c(cc3[C@@H](Oc3ccc(F)cc3)C3COC(=O)[C@H]23)OCO4)cc(OC)c1O` (some centres not stated), the TGI in assay [7] was > 21.2 µM; in assay [5] it was 47.2 µM; in assay [2] it was > 100 µM; in [9] it was > 100 µM; in [4], 40.4 µM.
